Experimental findings from PMC11291776, “The development of ^177Lu-DOTA-CC-PSMA following a unified “Click Chemistry” protocol of synthesizing metal nuclide-conjugated radiopharmaceuticals” (EJNMMI Radiopharmacy and Chemistry, 2024) are described below.

Structures are written as SMILES.

The data set in a line: Pharmacokinetics (blood radioactivity after i.v. injection). It counts as in vivo. As to conditions: healthy BALB/c male mice, i.v. 3.7 MBq, blood 2-240 min, DAS 2.0. The method, then: ^177Lu-DOTA-CC-PSMA (3.7 MBq in 100 µL) or ^177Lu-PSMA-617 (3.7 MBq in 100 µL) was administered intravenously via the tail into BALB/c male mice (n = 6), and a venous blood sample (5 µL) was collected from the tail end of each mouse at different time points after injection (2, 4, 6, 10, 15, 30, 60, 120, and 240 min). The radioactivity of the blood samples was measured by γ-counter, and the pharmacokinetics data were obtained using the DAS 2.0 software.

`O=C([O-])CN1CCN(CC(=O)[O-])CCN(CC(=O)NCC2CCC(C(=O)N[C@@H](Cc3ccc4ccccc4c3)C(=O)NCCCC[C@H](NC(=O)N[C@@H](CCC(=O)O)C(=O)O)C(=O)O)CC2)CCN(CC(=O)[O-])CC1.[177Lu+3]` (stereo partly shown) [^177Lu-PSMA-617]: the blood clearance half-life turned out to be 17.18 min.
